Experimental data published in PMC12400448 (Chemical Science, 2025).

Target: alkaline phosphatase (ALP)
Experiment: fluorescence enzyme inhibition assay with compd. […] as substrate
Type: biochemical

- IC50: 10.2 µM
Compound: [O]=[V]([OH])([OH])[OH] [sodium orthovanadate]
